Patent US11261179B2, “Small molecules” (University of Dundee, priority 2017, dated 2022)

Assays:
[1] = biological target: pVHL19 (VCB complex: VHL with Elongin B and Elongin C) (Homo sapiens, UniProt P40337); test: ITC titration against VCB, short VHL isoform; type: binding; settings: for Kd / ΔG / ΔH / α (cooperativity/avidity) / −TΔS / n (stoichiometry): ITC; for Kd / ΔG / ΔH / α (cooperativity/avidity) / −TΔS: pVHL19; for n (stoichiometry): pVHL19, 25° C.; for binding to VCB detected by ITC: ITC against VCB
Chain of pVHL19 (VCB complex: VHL with Elongin B and Elongin C) (P40337 54-213): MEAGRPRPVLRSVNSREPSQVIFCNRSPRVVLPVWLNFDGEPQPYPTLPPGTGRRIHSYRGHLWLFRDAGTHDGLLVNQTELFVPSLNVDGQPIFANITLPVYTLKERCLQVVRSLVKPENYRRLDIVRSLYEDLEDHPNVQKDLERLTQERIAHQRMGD
Chain of pVHL19 (VCB complex: VHL with Elongin B and Elongin C) (Q15370 1-104 partner limits assumed): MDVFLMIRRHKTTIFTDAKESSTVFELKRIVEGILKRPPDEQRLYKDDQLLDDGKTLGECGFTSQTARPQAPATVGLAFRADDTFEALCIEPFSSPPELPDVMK
Chain of pVHL19 (VCB complex: VHL with Elongin B and Elongin C) (Q15369 17-112 partner limits assumed): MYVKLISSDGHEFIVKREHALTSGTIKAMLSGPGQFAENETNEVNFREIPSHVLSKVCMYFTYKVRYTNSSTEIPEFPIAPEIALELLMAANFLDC
Protocol: (§1) Titrations were performed on an ITC200 micro-calorimeter (GE Healthcare). […] The final DMSO concentration was 0.15% v/v. VBC protein experiments were carried out in a buffer containing 20 mM Bis-tris propane, 150 mM NaCl, 1 mM TCEP, 0.15% v/v DMSO, pH 7.4. The titrations consisted of 19 injections of 2 μL compounds solution (150 μM, in the syringe) at a rate of 2 s/μL at 120 s time intervals into the VCB protein solution (20 μM, in the cell). An initial injection of compound solution (0.4 μL) was made and discarded during data analysis. All experiments were performed at 25° C., whilst stirring the syringe at 600 rpm. The data were fitted to a single binding site model to obtain the stoichiometry n, the dissociation constant Kd and the enthalpy of binding ΔH using the Microcal LLC ITC200 Origin software provided by the manufacturer.

[2] = biological target: T1, pVHL30 (long isoform of VHL) (Homo sapiens, UniProt P40337); test: Western blot of VHL levels in HeLa cells; type: cell-based; settings: 1 μM, 10 h
T1 construct: endogenous in cells; host or cells: HeLa
T1 sequence (P40337 whole entry, canonical isoform): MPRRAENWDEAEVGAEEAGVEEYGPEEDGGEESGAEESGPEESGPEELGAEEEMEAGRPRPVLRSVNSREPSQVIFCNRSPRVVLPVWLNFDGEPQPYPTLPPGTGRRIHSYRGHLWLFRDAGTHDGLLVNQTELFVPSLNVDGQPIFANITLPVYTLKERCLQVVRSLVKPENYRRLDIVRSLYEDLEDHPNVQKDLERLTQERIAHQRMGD
Protocol: (§2) For single time point treatment experiments, cells were transferred in 6-well plates with 5×10^5 cells per well in 2 ml media in order to achieve 80% confluence the following day. Stock concentrations of compounds were prepared by solubilizing the powder in 100% v/v DMSO to the final desired stock concentration.
(§3) On the day of treatment, all compound samples were prepared as 100-fold concentrated compound solution using DMEM just before treatment. The experiment samples (20 μL) were added to the 6 well plate containing 2 ml of media. The final DMSO concentration was 0.1% v/v. Cells were incubated at 37° C. and 5% CO2 for the desired time before harvesting.
(§4) For time dependent treatment, cells were transferred in 6-well plates with 3×10^5 cells per well in 2 ml media. Samples were prepared as detailed above or the single time point experiments. Treatment was conducted at given time points prior to harvest.
Cells were transferred in 6-well plates with 5×10^5 cells per well in 2 ml media in order to achieve 80% confluence the day after. At t=0, MLN4924 was added into the desired wells at 3 μM final concentration and 0.1% v/v of DMSO. DMSO (0.1% v/v final conc.) was added to the remaining wells in order to match identical conc. of vehicle in all wells. At t=3 h, MG 132 was added into the desired wells at 50 μM final conc. and 0.1% v/v of DMSO. DMSO (0.1% v/v final conc.) was added to the remaining wells in order to achieve the same conc. of vehicle in all the wells. […] DMSO (0.1% v/v final conc.) was added to the remaining wells in order to obtain the same conc. of vehicle in all the wells. The total final concentration of DMSO was therefore 0.3% v/v. Plates were incubated for 4 h at 37° C. and 5% CO2 before harvesting.
Cells were transferred in 6-well plates with 5×10^5 cells per well in 2 ml media in order to achieve 80% confluence the day after. […] Plates were incubated for the desired time at 37° C. and 5% CO2 before harvesting.
For this experiments, cells were transferred in 6-well plates with 5×10^5 cells per well in 2 ml media in order to achieve 80% confluence the day after. […] Plates were incubated for the desired time at 37° C. and 5% CO2 before harvesting.
(§5) Cells were lysed in lysis buffer (20 mM Tris pH 8, 150 mM NaCl, 1% Triton x100) and a protease inhibitor cocktail (Roche) per 10 ml buffer. For protein extracts, the dishes were placed on ice. The media was aspirated and the tissue layer washed twice with ice-cold phosphate buffer saline (PBS). Lysis buffer (120 μl) was added and the cells detached from the surface with a cell scraper. After removal of the insoluble fraction by centrifugation, the protein concentration of the supernatant was determined by Pierce™ Coomassie (Bradford) Protein Assay Kit. Protein extracts were fractionated by SDS-PAGE on 4-12% Tris-Acetate NuPage® Novex® (Life Technologies) polyacrylamide gels and transferred to a nitrocellulose membrane using wet transfer. The membrane was then blocked with 5% w/v Bovine serum albumin (BSA) in Tris-buffered saline (TBS) with 0.1% w/v Tween-20. For detecting proteins the following primary antibodies in the given concentrations were used: anti-β-Actin (Cell Signaling Technology, 4970S, 13E5) 1:2000, anti-VHL (Cell Signaling Technology, #68547) 1:1000, anti-Hif-1α (BD Biosciences, 610959, clone 54) 1:1000, anti-hydroxy-HIF-1α (Hyp564) (Cell Signaling Techonology; #3434) 1:1000, anti-PHD2 (Bethyl Laboratories; A300-322A) 1:1000, anti-PHD3 (Bethyl Laboratories; A300-327A) 1:1000, anti-CRBN (Proteintech; 11435-1-AP) 1:1000.
(§6) Following incubation with a horseradish peroxidase-conjugated secondary antibody (Cell Signaling Technology), the signal was developed using enhanced chemiluminescence (ECL) Western Blotting Detection Kit (Amersham) on Amersham Hyperfilm ECL film (Amersham).
Band quantification was performed using ImageJ software and reported as relative amount as ratio of the each protein band relative to the lane's loading control. […]

VCB complex = VCB complex (Homo sapiens, UniProt P40337); test: Size exclusion chromatography of VCB complex formation; type: binding; settings: SEC; for shift of VCB peak / ternary complex formation: VCB 50 μM, compound 30 μM
Chain of VCB complex (P40337 54-213 limits assumed): as the sequence (P40337 54-213) above
Chain of VCB complex (Q15370 1-104 partner limits assumed): as the sequence (Q15370 1-104 partner limits assumed) above
Chain of VCB complex (Q15369 17-112 partner limits assumed): as the sequence (Q15369 17-112 partner limits assumed) above
Protocol: SEC experiments were carried out in a AKTA pure system (GE Healthcare) at room temperature. The oligomeric state of the VCB complex in solution was analyzed by gel filtration in a buffer containing 20 mM Bis-Tris (pH 7), 150 mM NaCl and 1 mM 1,4-dithiothreitol (DTT) using a Superdex 200 Increase 10/300 GL column (GE Healthcare) calibrated with globular proteins of known molecular weight (GE Healthcare, 28-4038-41/42). […] Sample volume for each injection was 200 μL, and the flow rate was 0.5 mL/min. Peak elution was monitored using ultraviolet absorbance at 280 nm.

pVHL30 (VCB complex) = pVHL30 (VCB complex) (Homo sapiens, UniProt P40337); test: ITC titration against VCB, long VHL isoform; type: binding
Chain of pVHL30 (VCB complex) (P40337 whole entry, canonical isoform): as the sequence (P40337 whole entry, canonical isoform) above
Chain of pVHL30 (VCB complex) (Q15370 1-104 partner limits assumed): as the sequence (Q15370 1-104 partner limits assumed) above
Chain of pVHL30 (VCB complex) (Q15369 17-112 partner limits assumed): as the sequence (Q15369 17-112 partner limits assumed) above
Protocol: as §1

[3] = system: HIF-1α / hydroxylated HIF-1α (Hdy-HIF-1α); test: Western blot of HIF-1α and Hdy-HIF-1α levels in HeLa cells; type: cell-based, Human
Protocol: as §2, §3, §4, §5, §6
Band quantification was performed using ImageJ software and reported as relative amount as ratio of the each protein band relative to the lane's loading control. The values obtained were then normalized to 0.1% DMSO vehicle control.

CC(=O)N[C@H](C(=O)N1C[C@H](O)C[C@H]1C(=O)NCc1ccc(-c2scnc2C)cc1OCCOCCOCCOCCOCCOCC(=O)N[C@H](C(=O)N1C[C@H](O)C[C@H]1C(=O)NCc1ccc(-c2scnc2C)cc1)C(C)(C)C)C(C)(C)C [CMP112, (2S,4R)-1-((S)-2-acetamido-3,3-dimethylbutanoyl)-4-hydroxy-N-(2-(((S)-19-((2S,4R)-4-hydroxy-2-((4-(4-methylthiazol-5-yl)benzyl)carbamoyl)pyrrolidine-1-carbonyl)-20,20-dimethyl-17-oxo-3,6,9,12,15-pentaoxa-18-azahenicosyl)oxy)-4-(4-methylthiazol-5-yl)benzyl)pyrrolidine-2-carboxamide]
Kd [1]: 235 ± 22 nM
ΔG [1]: -9.1 kcal/mol
ΔH [1]: -14.8 ± 0.2 kcal/mol
α (cooperativity/avidity) [1]: 0.8
−TΔS [1]: 5.8 kcal/mol
n (stoichiometry) [1]: 0.498 ± 0.006

Cc1ncsc1-c1ccc(CNC(=O)[C@@H]2C[C@H](O)CN2C(=O)[C@@H](NC(=O)COCCOCCOCCOCCOCCOCC(=O)N[C@H](C(=O)N2C[C@@H](O)C[C@H]2C(=O)NCc2ccc(-c3scnc3C)cc2)C(C)(C)C)C(C)(C)C)cc1 [CMP98, N^1,N^20-bis((S)-1-((2S,4S)-4-hydroxy-2-((4-(4-methylthiazol-5-yl)benzyl)carbamoyl)pyrrolidin-1-yl)-3,3-dimethyl-1-oxobutan-2-yl)-3,6,9,12,15,18-hexaoxaicosanediamide]
binding to VCB detected by ITC [1]: binding was not detected
depletion/degradation of VHL (pVHL30) [2]: unable to induce degradation of VHL
shift of VCB peak / ternary complex formation (VCB complex): no shift

Cc1ncsc1-c1ccc(CNC(=O)[C@H]2C[C@@H](O)CN2C(=O)[C@H](NC(=O)COCCOCCOCCOCCOCC(=O)N[C@H](C(=O)N2C[C@H](O)C[C@H]2C(=O)NCc2ccc(-c3scnc3C)cc2)C(C)(C)C)C(C)(C)C)cc1 [CMP99, N^1—((R)-1-((2R,4R)-4-hydroxy-2-((4-(4-methylthiazol-5-yl)benzyl)carbamoyl)pyrrolidin-1-yl)-3,3-dimethyl-1-oxobutan-2-yl)-N^17—((S)-1-((2S,4R)-4-hydroxy-2-((4-(4-methylthiazol-5-yl)benzyl)carbamoyl)pyrrolidin-1-yl)-3,3-dimethyl-1-oxobutan-2-yl)-3,6,9,12,15-pentaoxaheptadecanediamide]
Kd (pVHL30 (VCB complex)): 106 ± 10 nM
n (stoichiometry) (pVHL30 (VCB complex)): 1.050 ± 0.004
ΔG (pVHL30 (VCB complex)): -9.51 ± 0.05 kcal/mol
ΔH (pVHL30 (VCB complex)): -5.19 ± 0.03 kcal/mol
−TΔS (pVHL30 (VCB complex)): -4.3 ± 0.1 kcal/mol
Kd [1]: 146 ± 2 nM
ΔG [1]: -9.33 ± 0.06 kcal/mol
ΔH [1]: -6.23 ± 0.05 kcal/mol
−TΔS [1]: -3.1 ± 0.7 kcal/mol
n (stoichiometry) [1]: 0.964 ± 0.005
depletion/degradation of VHL (pVHL30) [2]: unable to induce degradation of VHL
elution volume of small peak (VCB complex): 13.5 mL
shift of VCB peak / ternary complex formation (VCB complex): no shift

CC(=O)N[C@H](C(=O)N1C[C@H](O)C[C@H]1C(=O)NCc1ccc(-c2scnc2C)cc1)C(C)(C)C [VH032, reference compound]
protein levels of Hdy-HIF-1α ([3]; HeLa, 1 μM, 10 h): completely ineffective
concentration at which active in cells ([3]; cells): ~100 µM

Cc1ncsc1-c1ccc(CNC(=O)[C@@H]2C[C@@H](O)CN2C(=O)[C@@H](NC(=O)C2(C#N)CC2)C(C)(C)C)c(OCCOCCOCCOCCOCCOc2cc(-c3scnc3C)ccc2CNC(=O)[C@@H]2C[C@@H](O)CN2C(=O)[C@@H](NC(=O)C2(C#N)CC2)C(C)(C)C)c1 [CMP108, (2S,2′S,4R,4′R)—N,N′-((((3,6,9,12-tetraoxatetradecane-1,14-diyl)bis(oxy))bis(4-(4-methylthiazol-5-yl)-2,1-phenylene))bis(methylene))bis(1-((S)-2-(1-cyanocyclopropane-1-carboxamido)-3,3-dimethylbutanoyl)-4-hydroxypyrrolidine-2-carboxamide)]
binding to VCB detected by ITC [1]: data could not be fitted to a binding curve

CC(=O)N[C@H](C(=O)N1C[C@H](O)C[C@H]1C(=O)NCc1ccc(-c2scnc2C)cc1OCCOCCOCCOCCOCCOc1cc(-c2scnc2C)ccc1CNC(=O)[C@@H]1C[C@@H](O)CN1C(=O)[C@@H](NC(C)=O)C(C)(C)C)C(C)(C)C [CMP106, (2S,2′S,4R,4′R)—N,N′-((((3,6,9,12-tetraoxatetradecane-1,14-diyl)bis(oxy))bis(4-(4-methylthiazol-5-yl)-2,1-phenylene))bis(methylene))bis(1-((S)-2-acetamido-3,3-dimethylbutanoyl)-4-hydroxypyrrolidine-2-carboxamide)]
Kd [1]: 111 ± 8 nM
ΔG [1]: -9.5 kcal/mol
ΔH [1]: -12.6 ± 0.1 kcal/mol
α (cooperativity/avidity) [1]: 1.7
−TΔS [1]: 3.1 kcal/mol
n (stoichiometry) [1]: 0.535 ± 0.004

Cc1ncsc1-c1ccc(CNC(=O)[C@@H]2C[C@@H](O)CN2C(=O)[C@@H](NC(=O)COCCOCCOCCOCCOCCOc2cc(-c3scnc3C)ccc2CNC(=O)[C@@H]2C[C@@H](O)CN2C(=O)[C@@H](NC(=O)C2(C#N)CC2)C(C)(C)C)C(C)(C)C)cc1 [CMP113, (2S,4R)-1-((S)-2-(tert-butyl)-20-(2-(((2S,4R)-1-((S)-2-(1-cyanocyclopropane-1-carboxamido)-3,3-dimethylbutanoyl)-4-hydroxypyrrolidine-2-carboxamido)methyl)-5-(4-methylthiazol-5-yl)phenoxy)-4-oxo-6,9,12,15,18-pentaoxa-3-azaicosanoyl)-4-hydroxy-N-(4-(4-methylthiazol-5-yl)benzyl)pyrrolidine-2-carboxamide]
Kd [1]: 117 ± 25 nM
ΔG [1]: -9.5 kcal/mol
ΔH [1]: -6.4 ± 0.2 kcal/mol
α (cooperativity/avidity) [1]: 1.7
−TΔS [1]: -3.1 kcal/mol
n (stoichiometry) [1]: 0.934 ± 0.005
